Molecules are shown by their SMILES.

For the assay, the target named is Beta-secretase 1 (Homo sapiens, UniProt P56817). As to the kind of experiment: Inhibition of BACE1 mediated cleavage of amyloid precursor protein by chemiluminescence assay.
Beta-secretase 1, sequence (P56817 whole entry): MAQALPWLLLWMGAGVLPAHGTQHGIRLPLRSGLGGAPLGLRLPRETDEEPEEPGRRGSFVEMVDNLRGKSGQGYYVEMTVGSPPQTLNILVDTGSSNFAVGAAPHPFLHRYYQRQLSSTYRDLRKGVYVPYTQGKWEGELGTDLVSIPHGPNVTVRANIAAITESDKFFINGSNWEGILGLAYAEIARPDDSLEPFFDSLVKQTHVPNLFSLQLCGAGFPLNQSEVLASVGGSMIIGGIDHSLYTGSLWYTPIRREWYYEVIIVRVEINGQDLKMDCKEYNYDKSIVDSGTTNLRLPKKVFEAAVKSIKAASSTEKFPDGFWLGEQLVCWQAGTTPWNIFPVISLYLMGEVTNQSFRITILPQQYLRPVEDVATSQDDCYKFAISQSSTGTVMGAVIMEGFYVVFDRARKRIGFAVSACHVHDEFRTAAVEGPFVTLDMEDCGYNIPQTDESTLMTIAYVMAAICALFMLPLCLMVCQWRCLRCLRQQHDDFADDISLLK
On to `C[C@@]12CCCc3coc(c31)C(=O)c1cc3ccccc3cc12` [XESTOSAPROL M], for which inhibition was half-maximal at 104 µM (IC50) and the inhibition entry is “Dose-dependent effect”.
Taken in the same sequence, the figures for `C[C@@]12CC[C@H](O)[C@@H]3COC(=C31)C(=O)c1cc3ccccc3cc12` [XESTOSAPROL L] were 98 µM and “Dose-dependent effect”.
In the case of `C[C@@]12CC[C@H](O)[C@@H]3COC(=C31)C(=O)c1cc3c(O)cccc3cc12` [XESTOSAPROL G], 155 µM corresponded to half-maximal inhibition (IC50) and the inhibition entry is “Dose-dependent effect”.
As to `C[C@@]12CC[C@H](O)[C@@H]3COC(=C31)C(=O)c1cc3cccc(O)c3cc12` [XESTOSAPROL K], the IC50 was found to be 93 µM and the inhibition result was “Dose-dependent effect”.
Taken in the same sequence, the figures for `COc1cccc2cc3c(cc12)[C@]1(C)CC[C@H](O)[C@@H]2COC(=C21)C3=O` [XESTOSAPROL J] were 90 µM and “Dose-dependent effect”.
Consider `C[C@@]12CC[C@@H](O)[C@@H]3COC(=C31)C(=O)c1cc3c(OCCO)cccc3cc12` [XESTOSAPROL H], for which the midpoint of inhibition, the IC50, lay at 82 µM and the inhibition result was “Dose-dependent effect”.
As for `C[C@@]12CC[C@H](O)[C@@H]3COC(=C31)C(=O)c1cc3c(OCCO)cccc3cc12` [XESTOSAPROL F], the IC50 was found to be 135 µM and the inhibition entry is “Dose-dependent effect”.
Taken in the same sequence, the figures for `C[C@@]12CC[C@@H](O)[C@@H]3COC(=C31)C(=O)c1cc3ccccc3cc12` [XESTOSAPROL I] were 163 µM and “Dose-dependent effect”.

For the origin of these results see ChEMBL document CHEMBL1165986, “Xestosaprols from the Indonesian marine sponge Xestospongia sp” (J Nat Prod, 2010).
